Measured values from US5143911A, “Antibiotic C-3 di-hydroxyphenyl substituted cephalosporin compounds, compositions and method of use thereof” (Bristol-Myers Squibb Company, priority 1990, dated 1992).
Converted amounts (≈) assume the structure as drawn.

Columns and labels:
[1] = test system: Cephalothin (CET)sensitive E. coli(2), Kl. pneumoniae(1) and Pr. mirabilis(2); assay: MIC, two-fold serial agar dilution, Mueller-Hinton agar (geometric mean, group Gn-Ia); assay type: cell-based; settings: 5 strains
Procedure: (§1) For a primary evaluation of some representative compounds of this invention, minimum inhibitory concentrations (MIC's) were determined against 32 strains of test organisms by two-fold serial agar dilution method in Mueller-Hinton agar.
GnIa: Cephalothin (CET)sensitive E. coli(2)*, Kl. pneumoniae(1) and Pr.

B. fragilis A 22021 = assay: In vitro activity against anaerobes (MIC), two-fold serial agar dilution, GAM agar; assay type: cell-based; settings: Bacteroides fragilis, A22021, Gn, Beta-Lactamase(-)
P. aeruginosa 9843A = assay: MIC against the infecting organism (Table 2); settings: Pseudomonas aeruginosa
B. fragilis A 22693 = assay: In vitro activity against anaerobes (MIC), two-fold serial agar dilution, GAM agar; assay type: cell-based; settings: Bacteroides fragilis, A22693, Gn, Beta-Lactamase(-)
B. fragilis CUH-108 = assay: as above; assay type: cell-based; settings: Bacteroides fragilis, CUH108, Gn, Beta-Lactamase(+), Clindamycin-resistant
Procedure: In vitro activity against anaerobic bacteria was determined on eight strains of B. fragilis by two-fold serial agar dilution method in GAM agar.

B. fragilis A 21916 = assay: as above; assay type: cell-based; settings: Bacteroides fragilis, A21916, Gn, Beta-Lactamase(-)
B. fragilis A 22533 = assay: as above; assay type: cell-based; settings: Bacteroides fragilis, A22533, Gn, Beta-Lactamase(+)
C. perfringens A9635 = assay: microbe, parasite or virus in culture; assay type: cell-based; settings: Clostridium perfringens
B. fragilis A 22695 = assay: In vitro activity against anaerobes (MIC), two-fold serial agar dilution, GAM agar; assay type: cell-based; settings: Bacteroides fragilis, A22695, Gn, Beta-Lactamase(+)
[2] = test system: CETresistant E. coli(3), and Kl. pneumoniae(2); assay: MIC, two-fold serial agar dilution, Mueller-Hinton agar (geometric mean, group Gn-Ib); assay type: cell-based; settings: Escherichia coli, read-out: Geometric Mean of MIC, Gn-Ib
Procedure: as §1
GnIb: CETresistant E. coli(3), and Kl. pneumoniae(2)

P. acnes A 21933 = assay: In vitro activity against anaerobes (MIC); assay type: cell-based; settings: Cutibacterium acnes, A21933, Gp
[3] = test system: Penicillin (PC)sensitive S. (5 strains); assay: MIC, two-fold serial agar dilution, Mueller-Hinton agar (geometric mean, group Gp-Ia); assay type: cell-based, S. aureus; settings: Staphylococcus aureus
Procedure: as §1
Gp-Ia: Penicillin (PC)sensitive S.

Ps. aeruginosa (7) = assay: MIC, two-fold serial agar dilution, Mueller-Hinton agar (geometric mean, group Gn-III); assay type: cell-based; settings: Pseudomonas aeruginosa, 7 strains
Procedure: as §1
GnIII: Ps. aeruginosa (7)

E. coli Juhl [4] = assay: MIC against the infecting organism (Table 2); settings: Escherichia coli
S. aureus Smith [5] = settings: Staphylococcus aureus, in Mus musculus, im, read-out: PD50
C. difficile A 21675 = assay: In vitro activity against anaerobes (MIC); assay type: cell-based; settings: Clostridioides difficile, A21675, Gp, Clindamycin-resistant
[6] = test system: M. morganii(1), Ent. cloacae(2), and Ser. marcescens(2); assay: MIC, two-fold serial agar dilution, Mueller-Hinton agar (geometric mean, group Gn-II); assay type: cell-based; settings: 5 strains
Procedure: as §1
GnII: M. morganii(1), Ent. cloacae(2), and Ser. marcescens(2)

E. coli Juhl [7] = settings: Escherichia coli, in Mus musculus, im, read-out: PD50
B. fragilis A 22534 = assay: In vitro activity against anaerobes (MIC), two-fold serial agar dilution, GAM agar; assay type: cell-based; settings: Bacteroides fragilis, A22534, Gn, Beta-Lactamase(+)
PCresistant S. aureus = assay: MIC, two-fold serial agar dilution, Mueller-Hinton agar (geometric mean, group Gp-Ib); assay type: cell-based; settings: Staphylococcus aureus, penicillin-resistant S. aureus, 5 strains
Procedure: as §1
GpIb: PCresistant S. aureus

B. fragilis A 22053 = assay: In vitro activity against anaerobes (MIC), two-fold serial agar dilution, GAM agar; assay type: cell-based; settings: Bacteroides fragilis, A22053, Gn, Beta-Lactamase(-)
S. aureus Smith [8] = assay: MIC against the infecting organism (Table 2); settings: Staphylococcus aureus

Question: With CO/N=C(\C(=O)NC1C(=O)N2C(C(=O)O)=C(/C=C/COC(=O)c3ccc(O)c(O)c3)CS[C@H]12)c1nsc(N)n1 (stereo partly shown) [Ib, 7-[(Z)-2-(5-Amino-1,2,4-thiadiazol-3-yl)-2-methoxyiminoacetamido]-3-[(E)-3-(3,4-dihydroxybenzoyloxy)-1-propen-1-yl]-3-cephem-4carboxylic acid] as the molecule, how does the MIC [1] read?
Answer: 0.022 µg/mL (≈ 0.0382 µM)

Question: What about the MIC (B. fragilis A 22021) of the same molecule?
Answer: 0.2 µg/mL (≈ 0.347 µM)

Question: And the MIC (P. aeruginosa 9843A)?
Answer: 0.4 µg/mL (≈ 0.694 µM)

Question: And the MIC (B. fragilis A 22693)?
Answer: 3.1 µg/mL (≈ 5.38 µM)

Question: What about the MIC (B. fragilis CUH-108) of the same molecule?
Answer: > 50 µg/mL

Question: And the MIC (B. fragilis A 21916)?
Answer: 12.5 µg/mL (≈ 21.7 µM)

Question: And the MIC (B. fragilis A 22533)?
Answer: > 50 µg/mL

Question: And the MIC (C. perfringens A9635)?
Answer: 0.4 µg/mL (≈ 0.694 µM)

Question: And the MIC (B. fragilis A 22695)?
Answer: 25 µg/mL (≈ 43.4 µM)

Question: What about the MIC [2] of the same molecule?
Answer: 0.026 µg/mL (≈ 0.0451 µM)

Question: What about the MIC (P. acnes A 21933) of the same molecule?
Answer: 0.8 µg/mL (≈ 1.39 µM)

Question: What about the MIC [3] of the same molecule?
Answer: 3.4 µg/mL (≈ 5.9 µM)

Question: What about the MIC (Ps. aeruginosa (7)) of the same molecule?
Answer: 0.49 µg/mL (≈ 0.85 µM)

Question: And the MIC (E. coli Juhl [4])?
Answer: 0.1 µg/mL (≈ 0.173 µM)

Question: And the ED50 (S. aureus Smith [5])?
Answer: 0.68 mg/kg

Question: And the MIC (C. difficile A 21675)?
Answer: 25 µg/mL (≈ 43.4 µM)

Question: What about the MIC [6] of the same molecule?
Answer: 0.53 µg/mL (≈ 0.919 µM)

Question: What about the ED50 (E. coli Juhl [7]) of the same molecule?
Answer: 0.037 mg/kg

Question: What about the MIC (B. fragilis A 22534) of the same molecule?
Answer: > 50 µg/mL

Question: And the MIC (PCresistant S. aureus)?
Answer: 3.1 µg/mL (≈ 5.38 µM)

Question: And the MIC (B. fragilis A 22053)?
Answer: 3.1 µg/mL (≈ 5.38 µM)

Question: Which results are given for CC(C)(O/N=C(\C(=O)NC1C(=O)N2C(C(=O)O)=C(/C=C/COC(=O)c3ccc(O)c(O)c3)CS[C@H]12)c1csc(N)n1)C(=O)O (stereo partly shown) [Ic, 7-[(Z)-2-(2-Aminothiazol-4-yl)-2-(1-carboxy-1-methylethoxyimino)acetamido]-3-[(E)-3-(3,4-dihydroxybenzoyloxy)-1-propen-1yl]-3-cephem-4-carboxylic acid]?
Answer: MIC [1]: 0.022 µg/mL (≈ 0.034 µM); MIC (B. fragilis A 22021): 0.2 µg/mL (≈ 0.309 µM); MIC (P. aeruginosa 9843A): 0.2 µg/mL (≈ 0.309 µM); MIC (B. fragilis A 22693): 3.1 µg/mL (≈ 4.79 µM); MIC (B. fragilis CUH-108): 12.5 µg/mL (≈ 19.3 µM); MIC (B. fragilis A 21916): 0.8 µg/mL (≈ 1.24 µM); MIC (B. fragilis A 22533): > 100 µg/mL; MIC (C. perfringens A9635): 0.4 µg/mL (≈ 0.618 µM); MIC (B. fragilis A 22695): 3.1 µg/mL (≈ 4.79 µM); MIC [2]: 0.019 µg/mL (≈ 0.0293 µM); MIC (P. acnes A 21933): 0.8 µg/mL (≈ 1.24 µM); MIC [3]: 8.3 µg/mL (≈ 12.8 µM); MIC (Ps. aeruginosa (7)): 0.82 µg/mL (≈ 1.27 µM); MIC (E. coli Juhl [4]): 0.2 µg/mL (≈ 0.309 µM); ED50 (S. aureus Smith [5]): 2.2 mg/kg; MIC (C. difficile A 21675): 50 µg/mL (≈ 77.2 µM); MIC [6]: 0.17 µg/mL (≈ 0.262 µM); MIC (S. aureus Smith [8]): 12.5 µg/mL (≈ 19.3 µM); ED50 (E. coli Juhl [7]): 0.062 mg/kg; MIC (B. fragilis A 22534): > 100 µg/mL; MIC (PCresistant S. aureus): 13 µg/mL (≈ 20.1 µM); MIC (B. fragilis A 22053): 0.8 µg/mL (≈ 1.24 µM)
